Patent US7741520B2, “Sulfonanilide analogs as selective aromatase modulators (SAMs)” (The Ohio State University Research Foundation, priority 2006, dated 2010)

Assays:
SK-BR-3 cells = test: Cell viability analysis (MTT assay) in SK-BR-3 cells; format: cell-based, human; conditions: 10 μM (FIG. 15)
Experimental: Cell Viability Analysis. The effect of nimesulides derivatives on SK-BR-3 cell viability was assessed by using the 3-(4,5-dimethylthiazol-2-yl)-2,5-diphenyl-2H-tetrazolium bromide assay in six replicates. Cells were grown in custom media in 96-well, flat-bottomed plates for 24 h, and were exposed to various concentrations of nimesulide derivatives dissolved in DMSO (final concentration ≦0.1%) in define media for different time intervals. Controls received DMSO vehicle at a concentration equal to that in drug-treated cells. The medium was removed, replaced by 200 μl of 0.5 mg/ml of 3-(4,5-dimethylthiazol-2-yl)-2,5-diphenyl-2H-tetrazolium bromide in fresh media, and cells were incubated in the CO2 incubator at 37° C. for 2 h. Supernatants were removed from the wells, and the reduced 3-(4,5-dimethylthiazol-2-yl)-2,5-diphenyl-2H-tetrazolium bromide dye was solubilized in 200 μl/well DMSO. Absorbance at 570 nm was determined on a plate reader.

[1] = system: aromatase activity in SK-BR-3 breast cancer cells; test: Tritiated water-release assay in SK-BR-3 cells (additional compounds); format: cell-based, human; conditions: for IC50: dose-response (FIG. 13), read-out: IC50 (μM), suppression of aromatase activity in SK-BR-3 breast cancer cells
Experimental: Cell Culture. AR and SK-BR-3 cells were obtained from ATCC (Rockville, Md.). SK-BR-3 cells were maintained in phenol red-free custom media (MEM, Earle's salts, 1.5× amino acids, 2× non-essential amino acids, L-glutamine, 1.5× vitamins, Gibco BRL) supplemented with 10% fetal bovine serum (FBS), 2 mM L-glutamine and 20 mg/L gentamycin. […] Fetal bovine serum was heat inactivated for 30 min in a 56° C. water bath before use. Cell cultures were grown at 37° C., in a humidified atmosphere of 5% CO2 in a Hereaus CO2 incubator. For all experiments, cells were plated in 6 well plates and grown to subconfluency. Before treatment, the media was changed to a defined one containing DMEM/F12 media (Sigma) with 1.0 mg/mL human albumin (OSU Hospital Pharmacy), 5.0 mg/L human transferin and 5.0 mg/L bovine insulin.
Tritiated water-release assay in JAR and SK-BR-3 cell lines. Measurement of aromatase enzyme activity was based on the tritium water release assay. Cells in six well plates were treated with 0.1% DMSO (control), and inhibitors at the indicated concentrations. After 24 hours, the cells were incubated 3 hours (SK-BR-3 cells) or 1 hour (JAR cells) with fresh media along with 100 nM [1β-^3H]-androst-4-ene-3,17-dione (1 μCi). Subsequently, the reaction mixture was removed, and proteins were precipitated using 10% trichloroacetic acid at 42° C. for 20 min. After a brief centrifugation, the media was extracted three times with an equal amount of chloroform to remove remaining substrate and further treated with dextran-treated charcoal. After centrifugation, a 250-μl aliquot containing the product was counted in 5 ml of liquid scintillation mixture. Results were corrected for blanks and for the cell contents of culture flasks, and results were expressed as picomoles of ^3H2O formed per hour incubation time per million live cells (pmol/h/10^6 cells). To determine the amount of cells in each flask, the cells were lysed and analyzed using the diphenylamine DNA assay adapted to a 96-well plate. IC50 sigmoidal dose-response data were analyzed with Microsoft Excel and the Graphpad Prism (Version 3.0) program.
Diphenylamine DNA Assay To determine the amount of viable cells in each flask, the cells were lysed with 0.5N NaOH aqueous solution and analyzed using the diphenylamine DNA assay adapted to a 96-well plate. DNA standards (0-30 μg) were prepared using double-stranded DNA reconstituted in PBS and added in triplicates directly to the wells. A uniform cell suspension was prepared from the 6 well plate in 300 μl 0.5N NaOH aqueous solution, and 60 μl of the unknown samples were added in triplicates to separate wells. […] This solution (60 μl) was added to each well along with 100 μl of a 4% diphenylamine solution in glacial acetic acid. The plates were incubated at 37° C. for 24 hours. After centrifugation, 100 μl supernatant of each well was transferred to a new 96 well plate, and the OD595 was measured using a microplater reader. The DNA concentration was determined by extrapolation to the standard curve and the amount of cells/well was calculated using the equation: 1 cell≈7 pg DNA.

Row | Structure (SMILES) | cell cytotoxicity (MTT) (SK-BR-3 cells) | IC50 [1] | increase in activity compared with nimesulide ([1]; from IC50 values)
1 | CN(c1ccc([N+](=O)[O-])cc1OCc1ccc(F)cc1)S(C)(=O)=O [Compound 33c, N-methyl-N-[2-(4′-fluorobenzyloxy)-4-nitrophenyl]methanesulfonamide] | did not cause significant cell cytotoxicity | 1.78 ± 0.63 µM | 
2 | CN(c1ccc([N+](=O)[O-])cc1OCc1ccccc1)S(C)(=O)=O [Compound 26f, N-methyl-N-(2-benzyloxy-4-nitrophenyl) methanesulfonamide] | did not cause significant cell cytotoxicity | 0.81 ± 0.29 µM | 
3 | CN(c1ccc([N+](=O)[O-])cc1OCc1ccccc1-c1ccccc1)S(C)(=O)=O [Compound 29c, N-methyl-N-[2-(2′-phenylbenzyloxy)-4-nitrophenyl]methanesulfonamide] | did not cause significant cell cytotoxicity | 0.33 ± 0.15 µM | eighty fold increase
4 | CN(c1ccc([N+](=O)[O-])cc1OCc1ccc2ccccc2c1)S(C)(=O)=O [Compound 28c, N-methyl-N-[2-(β-naphthylmethoxy) 4-nitrophenyl]methanesulfonamide] | did not cause significant cell cytotoxicity | 2.68 ± 0.91 µM | 
5 | Cc1ccc(COc2cc([N+](=O)[O-])ccc2N(C)S(C)(=O)=O)cc1 [Compound 30c, N-methyl-N-[2-(4′-methylbenzyloxy)-4-nitrophenyl]methanesulfonamide] | did not cause significant cell cytotoxicity | 2.33 ± 0.66 µM | 
6 | CN(c1ccc([N+](=O)[O-])cc1OCc1ccc([N+](=O)[O-])cc1)S(C)(=O)=O [Compound 27c, N-methyl-N-[2-(4′-nitrobenzyloxy)-4-nitrophenyl]methanesulfonamide] | did not cause significant cell cytotoxicity | 0.49 ± 0.14 µM | 
